Here are results for 13 compounds from ChEMBL document CHEMBL5325421, “Discovery of novel sulfonamide chromone-oxime derivatives as potent indoleamine 2,3-dioxygenase 1 inhibitors” (Eur J Med Chem, 2023).

Each structure is given as a SMILES string.

Data set [1] concerns CT26. The experiment in a line: Antitumor activity against mouse CT26 cells xenografted in BALB/c mouse model assessed as relative tumor volume growth at 100 mg/kg measured every 3 days for 21 days by caliper method relative to control. The format is functional. The following applies: time 21 day.
Data set [2] deals with CT26. The data set can be described thus: Antitumor activity against mouse CT26 cells xenografted in BALB/c mouse model assessed as reduction in tumor weight at 100 mg/kg measured every 3 days for 21 days by caliper method relative to control. The format is functional. Further details: scale not given: the % may be the effect or the level left. The following applies: time 21 day.

The nature of data set [3]: Toxicity in BALB/c mouse assessed as change in body weight at 100 mg/kg measured upto 22 days. It is filed as organism-based. The following applies: in vivo, 528 h, time < 22 day.
Data set [4] has as its target T1, Indoleamine 2,3-dioxygenase 1 (Homo sapiens, UniProt P14902). The data set can be described thus: Inhibition of human recombinant IDO1 measured after 60 mins by fluorescence based analysis.
Target sequence in this assay (P14902 whole entry): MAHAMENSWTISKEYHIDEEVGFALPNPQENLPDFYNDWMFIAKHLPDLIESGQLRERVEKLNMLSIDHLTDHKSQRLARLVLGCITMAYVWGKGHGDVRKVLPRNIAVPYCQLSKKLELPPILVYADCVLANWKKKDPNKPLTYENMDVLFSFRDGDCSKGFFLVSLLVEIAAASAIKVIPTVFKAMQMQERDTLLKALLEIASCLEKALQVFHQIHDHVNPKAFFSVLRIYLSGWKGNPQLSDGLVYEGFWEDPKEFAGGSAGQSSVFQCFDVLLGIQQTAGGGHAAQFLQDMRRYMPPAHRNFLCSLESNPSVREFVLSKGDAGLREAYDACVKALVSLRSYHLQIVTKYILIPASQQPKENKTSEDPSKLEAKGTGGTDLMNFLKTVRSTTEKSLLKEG
Data set [5] addresses T1, Indoleamine 2,3-dioxygenase 1. The data set can be described thus: Inhibition of IDO1 in IFN-gamma treated human HeLa cells incubated for 48 hrs by absorbance based analysis. The format is cell-based.
Target sequence in this assay (P14902 whole entry): as above
Data set [6] shares this target. The data set can be described thus: Binding affinity to human recombinant IDO1 assessed as dissociation constant measured for 60 sec by SPR assay. Conditions: dose 0.78-25 µM. (In general: SPR reads the build-up and loss of mass on a sensor chip optically.)
Target sequence in this assay (P14902 whole entry, looked up): as the sequence (P14902 whole entry) above
Data set [7] deals with CT26. The data set can be described thus: Antitumor activity against mouse CT26 cells xenografted in BALB/c mouse model assessed as relative tumor volume growth at 50 mg/kg measured every 3 days for 21 days by caliper method relative to control. Conditions: time 21 day. The format is functional.
Data set [8] relates to CT26. The experiment in a line: Antitumor activity against mouse CT26 cells xenografted in BALB/c mouse model assessed as reduction in tumor weight at 50 mg/kg measured every 3 days for 21 days by caliper method relative to control. The format is functional. More on the design: scale not given: the % may be the effect or the level left. Conditions: time 21 day.
Data set [9] in a line: Toxicity in BALB/c mouse assessed as change in body weight at 50 to 100 mg/kg measured upto 22 days. Conditions: in vivo, 528 h, dose 50-100 mg/kg, time < 22 day. The format is organism-based.
Data set [10] in a line: Toxicity in BALB/c mouse assessed as pathological changes in heart at 50 to 100 mg/kg. The format is organism-based. Conditions: in vivo, dose 50-100 mg/kg.
The nature of data set [11]: Toxicity in BALB/c mouse assessed as pathological changes in liver at 50 to 100 mg/kg. It is filed as organism-based. Conditions: in vivo, dose 50-100 mg/kg.
Data set [12] is described as follows: Toxicity in BALB/c mouse assessed as pathological changes in spleen at 50 to 100 mg/kg. It is filed as organism-based. Conditions: in vivo, dose 50-100 mg/kg.
Data set [13] in a line: Toxicity in BALB/c mouse assessed as pathological changes in lungs at 50 to 100 mg/kg. It is filed as organism-based. Conditions: in vivo, dose 50-100 mg/kg.
Data set [14] is described as follows: Toxicity in BALB/c mouse assessed as pathological changes in kidney at 50 to 100 mg/kg. It is filed as organism-based. Conditions: in vivo, dose 50-100 mg/kg.
Data set [15] concerns the target T1, Indoleamine 2,3-dioxygenase 1. The experiment in a line: Binding affinity to human recombinant IDO1 heme iron assessed as shift in soret peak at 2 mM by UV-visible spectroscopic analysis (reference value: […]).
Target sequence in this assay (P14902 whole entry, looked up): as the sequence (P14902 whole entry) above
In data set [16] the test system is HCT-116. The experiment in a line: cells. Conditions: Homo sapiens, HCT-116, 48 h.
Data set [17] concerns SW480. The data set can be described thus: cells. The following applies: Homo sapiens, SW480, 48 h.
The test system of data set [18] is A549. The experiment in a line: cells. Conditions: Homo sapiens, A549, 48 h.
The test system of data set [19] is HeLa. The data set can be described thus: cells. Conditions: Homo sapiens, 48 h.
The target of data set [20] is T1, Indoleamine 2,3-dioxygenase 1. The experiment in a line: Binding affinity to human recombinant IDO1 assessed as dissociation rate constant measured for 60 sec by SPR assay.
Target sequence in this assay (P14902 whole entry): as above

Turning to `Nc1nonc1C(=NO)Nc1ccc(F)c(Cl)c1`, the values for the Activity in data set [1], in data set [2] and in data set [3] were 26.05%, 70.9% and “Non-Toxic”, respectively.
On to `Cn1cc(C[C@H](N)C(=O)O)c2ccccc21` [(L)-1-METHYLTRYPTOPHAN], for which the Activity in data set [2] was 45.6%; in [3], “Non-Toxic”.
As for `COc1ccc2/c(=N/O)cc(C(=O)N3CCN(S(=O)(=O)c4ccc(F)c(F)c4)CC3)oc2c1`, the half-maximal inhibitory concentration (IC50) in [4] was 0.64 µM; in data set [5], 1.04 µM; in [16], over 50 µM; in data set [17], 28.6 µM; in data set [18] it was over 50 µM; in data set [19], over 50 µM. Further, the Activity entry in data set [6] was “Dose-Dependent Effect”; in data set [7], 63.52%; in data set [1], 38.01%; in data set [8], 36.2%; in [2] it was 60.4%; in [9], “Non-Toxic”. In addition, the Activity result in [10] is “Non-Toxic”; in [11], “Non-Toxic”; in data set [12], “Non-Toxic”; in data set [13], “Non-Toxic”; in data set [14] it was “Non-Toxic”; in data set [15] it was 421 nm. Besides, the koff in data set [20] is 0.11 s⁻¹.
Consider `Cc1ccc2/c(=N/O)cc(C(=O)N3CCN(S(=O)(=O)c4cccc([N+](=O)[O-])c4)CC3)oc2c1`, for which the IC50 in data set [4] was 7.52 µM; in data set [5] it was 8.84 µM; in data set [16] it was 6.44 µM; in data set [17], 17.1 µM; in data set [18] it was over 50 µM; in [19], 29.4 µM.
For `COc1ccc(S(=O)(=O)N2CCN(C(=O)c3c/c(=N\O)c4ccc(C)cc4o3)CC2)cc1`, the concentration for half-maximal inhibition (IC50) is 9.45 µM in data set [4]; over 10 µM in [5]; 1.48 µM in data set [16]; 17.6 µM in data set [17]; 41.4 µM in data set [18]; over 50 µM in [19].
On to `Cc1ccc2/c(=N/O)cc(C(=O)N3CCN(S(=O)(=O)c4ccc(Br)cc4)CC3)oc2c1`, for which the IC50 was over 10 µM in data set [4]; over 10 µM in [5]; 28.3 µM in [16]; over 50 µM in data set [17]; 46.1 µM in [18]; over 50 µM in data set [19].
Take `COc1ccc2/c(=N/O)cc(C(=O)N3CCN(S(=O)(=O)c4ccc(Cl)c(Cl)c4)CC3)oc2c1`: the IC50 in data set [4] is 3.73 µM; in data set [5], 7.61 µM; in data set [16], over 50 µM; in data set [17] it was over 50 µM; in data set [18] it was over 50 µM; in data set [19] it was over 50 µM.
With `COc1ccc2/c(=N/O)cc(C(=O)N3CCN(S(=O)(=O)c4ccc(Br)cc4)CC3)oc2c1`, the IC50 in [4] is 9.42 µM; in data set [5] it was over 10 µM; in data set [16] it was 18.5 µM; in data set [17] it was over 50 µM; in [18], over 50 µM; in data set [19], over 50 µM.
For the compound `COc1ccc2/c(=N/O)cc(C(=O)N3CCN(S(=O)(=O)c4ccccc4C)CC3)oc2c1`, the IC50 in data set [4] is over 10 µM; in [5], over 10 µM; in [16] it was 23.5 µM; in data set [17] it was over 50 µM; in data set [18], over 50 µM; in [19], over 50 µM.
On to `COc1ccc2/c(=N/O)cc(C(=O)N3CCN(S(=O)(=O)c4ccc(Cl)cc4)CC3)oc2c1`, for which the IC50 is 7.07 µM in [4]; 7.78 µM in [5]; 42 µM in data set [16]; 11.6 µM in data set [17]; over 50 µM in data set [18]; over 50 µM in [19].
For the compound `COc1ccc2/c(=N/O)cc(C(=O)N3CCN(S(=O)(=O)c4ccc(OC)c(OC)c4)CC3)oc2c1`, the IC50 is 0.92 µM in data set [4]; 1.68 µM in [5]; 47.8 µM in data set [16]; over 50 µM in [17]; over 50 µM in data set [18]; 34 µM in [19].
`COc1ccc2/c(=N/O)cc(C(=O)N3CCN(S(=O)(=O)c4ccc([N+](=O)[O-])cc4)CC3)oc2c1`: the IC50 was 3.58 µM in [4]; 5.66 µM in data set [5]; over 50 µM in data set [16]; over 50 µM in [17]; over 50 µM in data set [18]; 30.1 µM in data set [19].
As to `COc1ccc2/c(=N/O)cc(C(=O)N3CCN(S(=O)(=O)c4ccccc4Cl)CC3)oc2c1`, the IC50 in [4] was over 10 µM; in data set [5] it was over 10 µM; in data set [16], over 50 µM; in [17] it was over 50 µM; in [18], over 50 µM; in data set [19] it was over 50 µM.

The term IC50 denotes the concentration that gives 50% inhibition. In general, koff refers to the first-order rate constant of dissociation.
